Results as given in patent publication US20080293099A1, “Lignan Glycosidase and Utilization of the Same” (priority 2004, published 2008).

How the values were obtained:
[1] = system: SiGT8 recombinant protein; assay: lignan glycosidation activity assay with SiGT8 recombinant protein (HPLC analysis of the product); type: biochemical, Sesamum indicum; settings: crude enzyme solution expressed in Escherichia coli, UDP-glucose, 30° C. for an hour, absorption at 287 nm
Procedure: (§1) Escherichia coli JM109 (TOYOBO) was transformed with Escherichia coli expression vectors pSPB2637, pSPB2642, pSPB2645, pSPB2639 and pSPB2640 prepared in EXAMPLE 6, and preincubated at 37° C. overnight in LB medium supplemented with ampicillin in final concentration of 20 μg/ml. A part of the preincubation culture was added to M9 medium (10 ml) containing 50 μg/ml of ampicillin and 0.5% Casamino acid, and shake cultured to reach A600=0.6-1.0. The composition of M9 medium is as follows: 1×M9 salt, 1 mM MgSO4, 0.2% glucose and 0.001% thiamine hydrochloride. The composition of 10×M9 medium is as follows: a 500 ml aqueous solution containing 30 g of Na2HPO4, 15 g of KH2PO4, 2.5 g of NaCl and 5 g of NH4Cl. Next, IPTG (isopropyl-β-D-thiogalactopyranoside) in a final concentration of 0.5 mM was added to the culture. After further shake culture at 30° C. overnight, centrifugation was performed at 3000 rpm at 4° C. for 10 minutes to collect the cells. […]
(§2) Pinoresinol, piperitol or sesaminol was dissolved in a small quantity of DMSO and further dissolved in 70% ethanol to prepare a substrate solution (1 mg/ml). […]
(§3) The enzyme reaction was terminated by adding 100% acetonitrile (250 μl) containing 0.1% TFA (trifluoroacetic acid) to the reaction tube. […] The resulting supernatant was washed through a filter (pore size of […], 4 mm Millex-LH, Millipore) and then analyzed using high performance liquid chromatography (hereinafter HPLC). […]
Liquid chromatography (Lc-2010c (Shimadzu Corporation)) was performed using a C-30 column (Nomura Chemical, C30-UG-5, 4.6 mm×150 mm). […] Absorption was monitored at 287 nm to detect the compound contained in a sample. The spectra between 190 nm and 400 nm for each peak of the compound were measured using SPD-10AV (Shimadzu Corporation) to detect a substance having two absorption maxima (230 nm and 280 nm) characteristic of lignans. Under the conditions, authentic pinoresinol is detected at about 8.4 minutes, authentic piperitol at about 12.8 minutes and authentic sesaminol at about 13.8 minutes (FIGS. 2 and 3).

[2] = system: SrSiGT8 recombinant protein; assay: lignan glycosidation activity assay with purified His-SrSiGT8 recombinant protein (HPLC analysis); type: biochemical, Sesamum radiatum; settings: Ni column purified, dialyzed His-SrSiGT8, UDP-glucose, 30° C. for an hour
Procedure: About 1.4 kb DNA fragment containing the full-length SrSiGT8 was excised from pSPB2656 with BamHI/KpnI and then ligated to the BamHI/KpnI site of pQE30 vector (QIAGEN), which was an expression vector for Escherichia coli, to obtain SrSiGT8/pQE30 (pSPB2657). This pSPB2657 expresses recombinant protein (His-SrSiGT8) with His tag consisting of 6 histidine residues fused to SrSiGT8 at the N terminus.
Escherichia coli transformed with pSPB2657 was incubated as in EXAMPLE 7 to express a recombinant protein. The following experiment was all carried out on ice or at 4° C., unless otherwise indicated.
After the cells were dissolved in 5 ml of lysis buffer (20 mM sodium phosphate buffer, 30 mM imidazole, 500 mM NaCl, 5 mM β-mercaptoethanol and 100 μM APSMF) per 1 g, the cells were lysed by ultrasonication, followed by centrifugation at 4000 rpm for 10 minutes. The supernatant obtained was recovered as the crude enzyme solution.
Next, the His-SrSiGT8 recombinant protein was purified through a Ni column. Chelating Sepharose FF resin (Amersham Bioscience) was packed in the column and 0.1M NiSO4 in a volume equal to the resin was added to the resin. Subsequently, the column was washed with water in a volume twice the volume of the resin and then with 20% ethanol in a volume 3 times the volume of the resin.
Then, the column was equilibrated with a lysis buffer in a volume 5 times the volume of the resin and a sample obtained by diluting 5 mL of the crude enzyme solution described above with the lysis buffer to 10-fold was loaded on the column. After the sample naturally dropped by the gravity, the sample was washed 3 times with the lysis buffer in a volume 5 times the volume of the resin and then eluted using 5 ml of an elution buffer (20 mM sodium phosphate buffer, 500 mM imidazole, 500 mM NaCl, 5 mM β-mercaptoethanol and 100 μM APSMF) […]
To 300 μl of the dialyzed sample, 20 μl of the substrate solution (1 mg/ml) and 3 μl of 20 mM UDP-glucose were added to react at 30° C. for an hour. The reaction product was analyzed in a manner similar to EXAMPLE 8.

[3] = system: SaSiGT8 recombinant protein; assay: lignan glycosidation activity assay with SaSiGT8 recombinant protein (SaLGT1) (HPLC analysis); type: biochemical, S. alatum; settings: recombinant protein expressed in Escherichia coli as in EXAMPLE 11
Excerpt: The fragment containing ORF of SaSiGT8 was excised from pSPB2697 with BamHI and KpnI and inserted into the BamHI and KpnI sites of Escherichia coli expression vector pQE30 to give the expression vector pSPB2698. The recombinant SaSiGT8 protein (SaLGT1) was expressed as in EXAMPLE 11 to confirm that the protein had the lignan glycosidation activity. It was also confirmed by SDS-PAGE that the recombinant SaSiGT8 protein (ca. 60 kDa) was present in the lysis supernatant of transgenic Escherichia coli expressing the SaSiGT8 gene (FIG. 9).

[4] = system: SiGT10 recombinant protein; assay: lignan glycosidation activity assay with SiGT10 recombinant protein (HPLC analysis of the product); type: biochemical, Sesamum indicum; settings: crude enzyme solution expressed in Escherichia coli, UDP-glucose, 30° C. for an hour, absorption at 287 nm
Procedure: as §1, with “NH4Cl.” for “NH4Cl. Next, IPTG (isopropyl-β-D-thiogalactopyranoside) in a final concentration of 0.5 mM was added to the culture. After further shake culture at 30° C. overnight, centrifugation was performed at 3000 rpm at 4° C. for 10 minutes to collect the cells.”
as §2, §3
Liquid chromatography (Lc-2010c (Shimadzu Corporation)) was performed using a C-30 column (Nomura Chemical, C30-UG-5, 4.6 mm×150 mm). […] Absorption was monitored at 287 nm to detect the compound contained in a sample. […]

Molecule | glycosidation of the lignan substrate by SiGT8 (new product peak with lignan spectrum in HPLC) [1] | glycosidation of the lignan substrate by SrSiGT8 (new product peak with lignan spectrum in HPLC) [2] | glycosidation of the lignan substrate by SaSiGT8 (monoglucoside formed, HPLC) [3] | glycosidation of the lignan substrate by SiGT10 (new product peak with lignan spectrum in HPLC) [4]
COc1cc([C@@H]2OC[C@@H]3[C@H]2CO[C@H]3c2ccc3c(c2)OCO3)ccc1O [piperitol] | peak D having the spectrum of lignan (retention time of about 7.4 minutes) was newly obtained | peak E having a new spectrum for lignan showing the retention time of about 7.4 minutes was detected | produced the respective monoglucosides | –
Oc1cc2c(cc1[C@H]1OC[C@H]3[C@@H]1CO[C@@H]3c1ccc3c(c1)OCO3)OCO2 [sesaminol] | peak B having the spectrum of lignan (retention time of about 8.2 minutes) was newly obtained | peak F having a new spectrum for lignan showing the retention time of about 8.2 minutes was detected | produced the respective monoglucosides | peak C having the spectrum of lignan (retention time of about 8.2 minutes) was newly obtained
pinoresinol | peak A having the spectrum of lignan (retention time of about 4.0 minutes) was newly obtained | any peak with a spectrum for any new lignan was detected | produced the respective monoglucosides | any new product was not observed
